Experimental data: PMC2607018, “Iodine Atoms: A New Molecular Feature for the Design of Potent Transthyretin Fibrillogenesis Inhibitors” (PLoS ONE, 2009)

Key:
TTRY78F [1] = biological target: T1, TTRY78F (Homo sapiens, UniProt P02766, Y98F); experiment: Tetramer dissociation in 6M urea monitored by far-UV circular dichroism; format: biochemical; conditions: TTRY78F 3.6 µM, inhibitor 7.2 µM, 25 °C
Text: (§1) The stabilizing effect of iodine atoms on the tetrameric form of both TTRwt and TTRY78F has been further evaluted on urea induced dissociation experiments by comparing the performance of iododiflunisal versus diflunisal. Thus, after allowing maximum stabilization of the tetrameric forms of both TTR wild type and Y78F mutant proteins by formation of TTR/inhibitor complexes of (1:2) stoichiometry, measures of circular dichroism in the far-UV of changes in the secondary structure of TTR were recorded as a function of time in 6M urea solutions. It has been assumed that the rate of tetramer dissociation is irreversibly associated to fast monomer unfolding when employing urea concentrations exceeding those that may enable monomer refolding.
(§2) It is known that the dissociation of the tetrameric form of TTRwt takes an average of 42 h and the resulting monomers quickly unfold 500.000 times faster. Therefore the rate of dissociation can be estimated by lining it to unfolding which is irreversible in 6M urea. Thus, owing that the tetramer dissociation is the rate limiting step for fibrilogenesis and assuming the kinetic stabilizing mechanism of inhibition, good inhibitors should slow tetramer dissociation.
(§3) Although slow tetramer dissociation is not detectable by far-UV CD spectroscopy, this technique is very much suitable at monitoring the much faster unfolding step.The CD spectra of TTR corresponds to a typical β-sheet reach protein with a Cotton effect centered at 210 nm and a shoulder at 217 nm. This band gradually looses intensity as protein denaturation advances, therefore meaningful changes in the β-sheet content of the protein are normally recorded in the region of 210–250 nm. Below this region (190–210 nm) other interesting structural changes are masked by the high concentrations of urea required for denaturation. Results are here presented in unfolded fraction units which are calculated from each spectra assuming than at time zero the elipticity recorded corresponds to the fully folded protein while at 200 h this parameter agrees with a totally unfolded state.
(§4) Both proteins were incubated in buffered solutions of 6M urea in the presence and absence of 1:2 ratios of protein to inhibitor and far-UV CD spectra ([…]) were intermitently recorded for a period of 200 hours. […]
(§5) Protein stock solutions of wtTTR and TTRY78F of 1 mg/ml of protein in 50 mM of sodium phosphate buffer, 1mM EDTA, pH 7.0 were also prepared from mother solutions of both proteins containing 4 mg/mL (72.7 µM) of wtTTR and 3 mg/mL (55.5 µM) of TTRY78F that were determined by spectrophotometrical methods. […] The samples were incubated over a period of 200 hours at 25 °C and far-UV CD spectra (210-250 nm) were periodically recorded in a JASCO 600 instrument. […]

TTRwt = TTRwt (Homo sapiens, UniProt P02766); experiment: as above; format: biochemical; conditions: TTRwt 3.6 µM, inhibitor 7.2 µM, 25 °C
Text: as §1, §2, §3, §4, §5

TTRY78F [2] = biological target: T1, TTRY78F; parameters: method as in PMID 15080795; conditions: 1:2 proportion of TTRY78F/inhibitor; cited from earlier work
[3] = test system: thyroid hormone receptor alfa; experiment: In vitro binding test to thyroid hormone receptors; conditions: data not shown
Protocol: (§6) To gain further insight on the therapeutic potential of these iodinated TTR fibrillogenesis inhibitors, in vitro binding tests of idodiflunisal to thyroid hormone receptors alfa and beta were carried out (data not shown). […] This has been further confirmed by preclinical animal studies using a TTRV30M transgenic mice strain receiving 2.8 mg of iododiflunisal per day during 3 months. […] However, further preclinical tests are needed to validate these compounds as potential drugs for TTR related amyloidosis.

[4] = biological target: T2, thyroid hormone receptor beta (Homo sapiens, UniProt P10828); experiment: In vitro binding test to thyroid hormone receptors; conditions: data not shown
T2 sequence (P10828 1-461): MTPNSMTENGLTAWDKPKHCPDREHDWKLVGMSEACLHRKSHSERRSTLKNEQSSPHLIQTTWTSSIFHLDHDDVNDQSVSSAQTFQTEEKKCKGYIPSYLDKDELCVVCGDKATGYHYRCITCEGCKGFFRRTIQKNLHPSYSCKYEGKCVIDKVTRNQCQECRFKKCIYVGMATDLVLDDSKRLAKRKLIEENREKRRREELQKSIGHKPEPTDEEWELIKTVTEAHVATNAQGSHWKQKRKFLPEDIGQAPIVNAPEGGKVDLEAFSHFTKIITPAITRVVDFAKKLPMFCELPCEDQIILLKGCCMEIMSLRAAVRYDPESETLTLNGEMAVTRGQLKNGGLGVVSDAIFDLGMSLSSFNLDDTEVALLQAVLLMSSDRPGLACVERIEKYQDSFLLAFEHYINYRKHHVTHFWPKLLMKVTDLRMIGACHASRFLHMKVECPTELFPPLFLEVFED
Protocol: as §6

[5] = test system: natural TTR tetramers occurring in blood plasma of control and FAP patients; parameters: method as in PMID 15080795; conditions: cited from earlier work
[6] = test system: TTRV30M transgenic mice strain; experiment: Preclinical animal study, 3 months; format: in vivo; conditions: 2.8 mg per day during 3 months
Protocol: as §6

Row | Structure (SMILES) | protein denaturation (tetramer dissociation) after 200 h (TTRY78F [1]) | protein denaturation (unfolding) after 200 h (TTRwt) | aggregates seen by TEM (TTRY78F [2]) | binding constants [3] | binding constants [4] | stabilizing effect on TTR tetramers [5] | metabolic disfunctions [6]
1 | O=C(O)c1cc(-c2ccc(F)cc2F)ccc1O [1a, 2’,4’-difluoro-4-hydroxy-[1,1’]-biphenyl-3-carboxylic acid, reference compound] | 80% | 60% | still allow amyloid precipitates to occur | – | – | – | –
2 | O=C(O)c1cc(-c2ccc(F)cc2F)cc(I)c1O [1b, 2’,4’-difluoro-4-hydroxy-5-iodo-[1,1’]-biphenyl-3-carboxylic acid] | 30% | 30% | completely prevented | almost negligible | almost negligible | more potent stabilizing effect | did not show significant metabolic disfunctions
